Test results reported in US11377442B2, “Small molecule agonists and antagonists of NR2F6 activity” (ZANDER THERAPEUTICS, INC., priority 2016, dated 2022).
Like-named read-outs stand apart in the source and are kept apart here.

Experiments:
Assay type in all cases: cell-based
HEK293 pGL4 = experiment: Firefly_pGL signal, cmpd/DMSO (pGL4 control cells); details: Homo sapiens
NR2F6 = biological target: T1, NR2F6 (Homo sapiens, UniProt P10588); experiment: NR2F6 agonist screening, Firefly signal cmpd/DMSO; details: F4
T1 construct: expressed in transfected cells; also transient transfection
T1 sequence (P10588 1-404): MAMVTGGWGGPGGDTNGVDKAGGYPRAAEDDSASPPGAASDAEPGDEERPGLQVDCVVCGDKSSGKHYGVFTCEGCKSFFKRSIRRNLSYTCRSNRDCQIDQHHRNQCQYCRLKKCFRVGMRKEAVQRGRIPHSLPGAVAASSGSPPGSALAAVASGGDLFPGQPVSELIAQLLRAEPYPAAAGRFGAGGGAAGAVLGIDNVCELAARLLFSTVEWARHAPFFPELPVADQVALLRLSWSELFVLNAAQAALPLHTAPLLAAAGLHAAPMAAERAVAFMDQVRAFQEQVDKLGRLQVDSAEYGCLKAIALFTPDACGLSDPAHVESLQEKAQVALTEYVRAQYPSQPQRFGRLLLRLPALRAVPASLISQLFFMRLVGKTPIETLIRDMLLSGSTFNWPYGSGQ

Renilla = Renilla signal in NR2F6 agonist screening, cmpd/DMSO; details: Renilla, F4
NR2F6 LBD = biological target: T2, NR2F6 LBD (Homo sapiens, UniProt P10588); experiment: NR2F6 LBD transient transfection; details: LBD
T2 construct: expressed in transfected cells
T2 sequence (P10588 165-393 limits assumed): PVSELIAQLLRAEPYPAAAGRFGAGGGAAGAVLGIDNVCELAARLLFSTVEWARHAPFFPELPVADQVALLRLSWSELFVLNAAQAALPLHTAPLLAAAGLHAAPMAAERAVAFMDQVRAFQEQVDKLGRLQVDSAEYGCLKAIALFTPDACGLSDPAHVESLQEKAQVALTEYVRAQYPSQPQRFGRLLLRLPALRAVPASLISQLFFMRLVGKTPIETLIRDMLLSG
Outline: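 LBD-transfected cells treated at 40, 10, 2 and 0.5 μM (4 replicates); cytotoxicity measured in parallel, normalized to DMSO (0%) and zero signal (100%). Higher concentrations excluded where signal loss reflected toxicity.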

[1] = HEK293, 0.5 uM, pGL4, read-out: Firefly pGL4, cmpd/DMSO (mean)
[2] = HEK293, 2 uM, pGL4, read-out: Firefly pGL4, cmpd/DMSO (mean)
[3] = HEK293, 10 uM, pGL4, read-out: Firefly pGL4, cmpd/DMSO (mean)
[4] = HEK293, 40 uM, pGL4, read-out: Firefly pGL4, cmpd/DMSO (mean)
[5] = HEK293, pGL4, 1% FBS, 0.5 uM, read-out: Firefly, pGL4, 1% FBS, cmpd/DMSO (mean)
[6] = HEK293, pGL4, 1% FBS, 2 uM, read-out: Firefly, pGL4, 1% FBS, cmpd/DMSO (mean)
[7] = HEK293, pGL4, 1% FBS, 10 uM, read-out: Firefly, pGL4, 1% FBS, cmpd/DMSO (mean)
[8] = HEK293, pGL4, 1% FBS, 40 uM, read-out: Firefly, pGL4, 1% FBS, cmpd/DMSO (mean)
[9] = HEK293, pGL4, 10% FBS, 0.5 uM, read-out: Firefly, pGL4, 10% FBS, cmpd/DMSO (mean)
[10] = HEK293, pGL4, 10% FBS, 2 uM, read-out: Firefly, pGL4, 10% FBS, cmpd/DMSO (mean)
[11] = HEK293, pGL4, 10% FBS, 10 uM, read-out: Firefly, pGL4, 10% FBS, cmpd/DMSO (mean)
[12] = HEK293, pGL4, 10% FBS, 40 uM, read-out: Firefly, pGL4, 10% FBS, cmpd/DMSO (mean)
[13] = read-out: Renilla, F4, cmpd/DMSO (mean)
[14] = 1% FBS, read-out: Renilla, F4, 1% FBS, cmpd/DMSO (mean)
[15] = 10% FBS, read-out: Renilla, F4, 10% FBS, cmpd/DMSO (mean)

Row | Firefly F4, cmpd/DMSO (mean) (NR2F6; 0.5 uM) | Firefly F4, cmpd/DMSO (mean) (NR2F6; 2 uM) | Firefly F4, cmpd/DMSO (mean) (NR2F6; 10 uM) | Firefly F4, cmpd/DMSO (mean) (NR2F6; 40 uM) | Firefly, F4, 1% FBS, cmpd/DMSO (mean) (NR2F6; 0.5 uM) | Firefly, F4, 1% FBS, cmpd/DMSO (mean) (NR2F6; 2 uM) | Firefly, F4, 1% FBS, cmpd/DMSO (mean) (NR2F6; 10 uM) | Firefly, F4, 1% FBS, cmpd/DMSO (mean) (NR2F6; 40 uM) | Compound | fold induction at 0.5 µM (HEK293 pGL4; [1]) | fold induction at 2 µM (HEK293 pGL4; [2]) | fold induction at 10 µM (HEK293 pGL4; [3]) | fold induction at 40 µM (HEK293 pGL4; [4]) | fold induction at 0.5 µM (HEK293 pGL4; [5]) | fold induction at 2 µM (HEK293 pGL4; [6]) | fold induction at 10 µM (HEK293 pGL4; [7]) | fold induction at 40 µM (HEK293 pGL4; [8]) | fold induction at 0.5 µM (HEK293 pGL4; [9]) | fold induction at 2 µM (HEK293 pGL4; [10]) | fold induction at 10 µM (HEK293 pGL4; [11]) | fold induction at 40 µM (HEK293 pGL4; [12]) | further results
1 | 1.0 | 1.1 | 1.4 | 2.2 | 1.0 | 0.8 | 1.1 | 1.8 | Cc1cc(S(=O)(=O)[C@H]2CS(=O)(=O)C[C@@H]2NCC2CCCO2)ccc1F (some centres unmarked) [Compound D115] | 1.2 | 1.2 | 1.3 | 2 | 1.1 | 1.2 | 1.2 | 1.6 | 1.2 | 1.2 | 1.6 | 2.1 | Firefly, F4, 10% FBS, cmpd/DMSO (mean) (NR2F6; 0.5 uM): 1.5; Firefly, F4, 10% FBS, cmpd/DMSO (mean) (NR2F6; 2 uM): 1.3; Firefly, F4, 10% FBS, cmpd/DMSO (mean) (NR2F6; 10 uM): 0.7; Firefly, F4, 10% FBS, cmpd/DMSO (mean) (NR2F6; 40 uM): 1.3; fold induction at 0.5 µM (Renilla; [13]): 1; fold induction at 2 µM (Renilla; [13]): 1; fold induction at 10 µM (Renilla; [13]): 1; fold induction at 40 µM (Renilla; [13]): 1.1; fold induction at 0.5 µM (Renilla; [14]): 1.1; fold induction at 2 µM (Renilla; [14]): 1; fold induction at 10 µM (Renilla; [14]): 1.2; fold induction at 40 µM (Renilla; [14]): 1.5; fold induction at 0.5 µM (Renilla; [15]): 1; fold induction at 2 µM (Renilla; [15]): 1; fold induction at 10 µM (Renilla; [15]): 1.1; fold induction at 40 µM (Renilla; [15]): 1.3; Firefly LBD, cmpd/DMSO (mean) (NR2F6 LBD; 0.5 uM): 0.9; Firefly LBD, cmpd/DMSO (mean) (NR2F6 LBD; 2 uM): 0.9; Firefly LBD, cmpd/DMSO (mean) (NR2F6 LBD; 10 uM): 1.3; Firefly LBD, cmpd/DMSO (mean) (NR2F6 LBD; 40 uM): 2.2
2 | 1.5 | 1.0 | 1.4 | 1.2 | 1.2 | 0.9 | 0.9 | 1.1 | CC(=O)N1CCN([C@H]2CS(=O)(=O)C[C@@H]2S(=O)(=O)c2ccc(F)c(C)c2)CC1 [Compound D116] | 1 | 1.2 | 1.1 | 1.4 | 1.6 | 1 | 1.7 | 1.4 | 1.1 | 1.1 | 1.4 | 1.5 | Firefly, F4, 10% FBS, cmpd/DMSO (mean) (NR2F6; 0.5 uM): 1.1; Firefly, F4, 10% FBS, cmpd/DMSO (mean) (NR2F6; 2 uM): 1.4; Firefly, F4, 10% FBS, cmpd/DMSO (mean) (NR2F6; 10 uM): 1.3; Firefly, F4, 10% FBS, cmpd/DMSO (mean) (NR2F6; 40 uM): 0.8; fold induction at 0.5 µM (Renilla; [13]): 1; fold induction at 2 µM (Renilla; [13]): 1.1; fold induction at 10 µM (Renilla; [13]): 1.1; fold induction at 40 µM (Renilla; [13]): 1.1; fold induction at 0.5 µM (Renilla; [14]): 1; fold induction at 2 µM (Renilla; [14]): 1.1; fold induction at 10 µM (Renilla; [14]): 1; fold induction at 40 µM (Renilla; [14]): 1.2; fold induction at 0.5 µM (Renilla; [15]): 0.8; fold induction at 2 µM (Renilla; [15]): 0.9; fold induction at 10 µM (Renilla; [15]): 0.9; fold induction at 40 µM (Renilla; [15]): 1.2; Firefly LBD, cmpd/DMSO (mean) (NR2F6 LBD; 0.5 uM): 0.9; Firefly LBD, cmpd/DMSO (mean) (NR2F6 LBD; 2 uM): 1.2; Firefly LBD, cmpd/DMSO (mean) (NR2F6 LBD; 10 uM): 1.1; Firefly LBD, cmpd/DMSO (mean) (NR2F6 LBD; 40 uM): 1.2
